Results on five molecules are retold here after US11173175B2, “Uridine diphosphate compounds as mobilizers of hematopoietic progenitor cells” (University of Pittsburgh—Of the Commonwealth System of …, priority 2012, dated 2021).

“Also recorded” adds a separate entry of the source.

Data set [1] has as its system bone marrow homing of peripheral blood cells.
A further data set has as its system osteoclasts. The data set is described as follows: TRAP staining of femur sections. To be noted: NAC treatment. Format: in vivo, mice.
Another data set has as its system RANKL. The data set is described as follows: RANKL expression by Western blot and immunohistochemistry. Format: in vivo, mice. To be noted: NAC 100 mg/kg/day in comparison with UDP-Glc-treated animals. On the technique in general: In western blotting, separated proteins are transferred to a membrane and probed.
The test system of the next data set is LSK and SLAM LSK cells. The data set is described as follows: HSPC mobilization: LSK and SLAM LSK cells quantified by flow cytometry. Format: in vivo, mice. The method, then:
(§1) We used 4-6 weeks old C57BL6 and BALB/C in all the experiments. Mice received subcutaneous injections of UDP-glucose (200 mg/kg, Sigma) dissolved in sterile endotoxin-free PBS. G-CSF (Neupogen, Amgen) was administered daily at a dose of 300 μg/kg subcutaneously for 4 consecutive days as previously described (Broxmeyer et al., 2005). […] Antioxidant, N-acetyl-L-cysteine (Sigma-Aldrich), was administered subcutaneously at 100 mg/kg/day. Bone marrow cells were obtained from both femur and tibia and used for flow cytometry and Western blot analysis. All animal studies were conducted after review by the University of Pittsburgh's Institutional Animal Care and Use Committee and in accordance with the University of Pittsburgh's Policy on the Care, Welfare and Treatment of Laboratory Animals.
Peripheral blood Lin-/Sca-1+/c-Kit+(LSK) and CD150+CD48-(SLAM) LSK cells were phenotyped using the following antibodies: lineage markers PE-Cy7-conjugated anti-CD3, anti-CD4, anti-CD8, anti-CD45R, anti-CD11b, anti-Gr-1, and anti-TER-119 (eBioscience); PE-conjugated anti-Sca-1 (eBioscience); APC-conjugated anti-c-Kit (eBioscience); perCP/Cy5.5-conjugated anti-CD150 (BioLegend); pacific Blue™-conjugated anti-CD48 (BioLegend). […] Mitochondrial superoxide level was measured using MitoSox™ (Invitrogen) within LSK cells, according to manufacturer's instructions.
as §1, with “Mice” for “We used 4-6 weeks old C57BL6 and BALB/C in all the experiments. Mice”, “(10).” for “(Broxmeyer et al., 2005).”
In general terms: Flow cytometry measures light scatter and fluorescence of single cells or particles in a stream.

The subject of a further data set is CXCR4. The data set is described as follows: CXCR4 expression on LSK and SLAM LSK cells. Format: in vivo, mice. The method, then:
FIG. 14A-14F. […] HSPC mobilization was assessed by measuring the numbers of LSK (upper left panel) and SLAM LSK (upper right panel) cells in peripheral blood. […] Representative images of TRAP staining from each group are shown (bottom panels). […] Shown are obtained from 6-8 weeks old animals. (C) Mice (B6) were injected as described in the legend to FIG. 11A. Bone marrow cells were collected from each treatment group and stained with indicated antibodies followed by flow cytometry analysis. The data are shown as mean values of three independent experiments with standard deviation. ** p<0.01. (D) Bone marrow mononuclear cells were isolated from B6 mice treated as above. To determine the protease activity, bone marrow supernatants harvested from indicated treatment groups were analyzed by zymogram analysis as described in the Methods section. The intensity of the zymogram bands (left panels) was analyzed utilizing densitometry and expressed as arbitrary units (right panels). Densitometric analyses are represented as the ratios to vehicle-treated group (CTL) set to 1. […] (E) Mice were treated as described in the legend to FIG. 13F. Expression levels of CXCR4 were determined in bone marrow (upper panel) and peripheral blood (lower panel) cells after gating on LSK or SLAM LSK subsets. Data are expressed as mean±SD from at least two independent experiments with four mice per group. […]

A further data set deals with LSK cells. The experiment in a line: Chemotaxis assay. Format: cell-based, mouse. The following applies: CXCL12 120 ng/ml; UDP-Glc, UTP, UDP 10 μM; 6 hours.
The test system of data set [2] is white blood cell (WBC) and lineage-marker expressing cells (CD3, CD11b, and Gr-1). The following applies: G-CSFR deficient mice.
Data set [3] addresses T1, P2Y14 receptor (Homo sapiens, UniProt Q15391).
T1 sequence (Q15391 1-338): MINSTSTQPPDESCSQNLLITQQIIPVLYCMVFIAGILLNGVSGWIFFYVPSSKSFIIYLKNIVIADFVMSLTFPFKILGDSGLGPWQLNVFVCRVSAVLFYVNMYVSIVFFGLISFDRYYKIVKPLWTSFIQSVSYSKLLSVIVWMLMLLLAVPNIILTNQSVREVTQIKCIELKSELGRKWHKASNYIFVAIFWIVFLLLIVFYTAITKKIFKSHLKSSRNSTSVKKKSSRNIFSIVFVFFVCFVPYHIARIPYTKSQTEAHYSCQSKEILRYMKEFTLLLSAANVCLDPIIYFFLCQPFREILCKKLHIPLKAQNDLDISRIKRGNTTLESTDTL
To be noted: Carter et al. 2009; cited from earlier work.

Data set [4] concerns the target T1, P2Y14 receptor. The following applies: cited from earlier work.
In the next data set the test system is cathepsin G (CG). The data set is described as follows: Zymographic analysis of bone marrow supernatants. Format: in vivo, mice. The protocol:
(§2) FIG. 14A-14F. […] HSPC mobilization was assessed by measuring the numbers of LSK (upper left panel) and SLAM LSK (upper right panel) cells in peripheral blood. […] Representative images of TRAP staining from each group are shown (bottom panels). […] Shown are obtained from 6-8 weeks old animals. (C) Mice (B6) were injected as described in the legend to FIG. 11A. Bone marrow cells were collected from each treatment group and stained with indicated antibodies followed by flow cytometry analysis. The data are shown as mean values of three independent experiments with standard deviation. ** p<0.01. (D) Bone marrow mononuclear cells were isolated from B6 mice treated as above. To determine the protease activity, bone marrow supernatants harvested from indicated treatment groups were analyzed by zymogram analysis as described in the Methods section. The intensity of the zymogram bands (left panels) was analyzed utilizing densitometry and expressed as arbitrary units (right panels). Densitometric analyses are represented as the ratios to vehicle-treated group (CTL) set to 1. […] (E) Mice were treated as described in the legend to FIG. 13F. Expression levels of CXCR4 were determined in bone marrow (upper panel) and peripheral blood (lower panel) cells after gating on LSK or SLAM LSK subsets. Data are expressed as mean±SD from at least two independent experiments with four mice per group. […] Recipient mice were conditioned (11 Gy) 24 hours before injection of cells.

The subject of another data set is MMP-9. The data set is described as follows: Zymographic analysis of bone marrow supernatants. Format: in vivo, mice. The protocol:
as §2

Another data set relates to neutrophil elastase (NE). The data set is described as follows: Zymographic analysis of bone marrow supernatants. Format: in vivo, mice. The method, then:
as §2

The subject of data set [5] is long-term repopulating HSPCs. The experiment in a line: Competitive repopulation and serial transplantation assays. Format: in vivo, mice. The method, then:
(§3) The ratio of CD45.1/CD45.2 cells in recipient's peripheral blood was determined at various times after transplantation.
as §3

The mark [6] stands for this setting: percentage of gated cells within the total number, UDP-Glc 200 mg/kg 6 days, G-CSF 300 μg/kg 4 days.

In the case of `CC(=O)N[C@@H](CS)C(=O)O` [NAC, N-acetyl-L-cysteine], the “effect of NAC pretreatment on homing of UDP-Glc-mobilized cells” value in data set [1] is reported as “inhibited by NAC pretreatment”. Moreover, the “UDP-Glc-induced osteoclastogenesis with NAC” value in the data set on osteoclasts is “significantly suppressed with NAC treatment”. The “RANKL expression with NAC” value in the data set with RANKL is listed as “notably lowered”. Besides, the “effect of NAC on UDP-Glc-induced LSK / SLAM LSK cell mobilization” value with LSK and SLAM LSK cells (NAC 100 mg/kg/day s.c.) is “significantly abrogate the LSK and SLAM LSK cell mobilization induced by UDP-Glc; also recorded: significantly suppressed by NAC treatment”. For the same molecule, in the data set with CXCR4, the “effect of NAC on UDP-Glc-induced CXCR4 expression” value is “able to abrogate the increase of CXCR4 expression induced by UDP-Glc, albeit not completely”.
Consider `O=c1ccn([C@@H]2O[C@H](COP(=O)(O)OP(=O)(O)O)[C@@H](O)[C@H]2O)c(=O)[nH]1` [UDP, uridine diphosphate], for which the “chemotactic migration of mouse LSK cells” value in the data set on LSK cells was “could chemoattract LSK cells in vitro in the presence or absence of CXCL12”. In addition, in data set [2], the “peripheral CD11b+, GR1+ and CD3+ cells in Csf3r−/− mice” value is recorded as “minimally affected”. For the same molecule, the “LSK cells in the peripheral circulation, UDP alone” value with LSK and SLAM LSK cells (UDP 200 mg/kg s.c.) is “did not elicit any appreciable change in the number of LSK cells”. The “effect of UDP on UDP-Glc-induced LSK cell mobilization” value in the data set with LSK and SLAM LSK cells (UDP 200 mg/kg with UDP-Glc 200 mg/kg) is recorded as “antagonized UDP-Glc-induced LSK cell mobilization”. For the same molecule, on P2Y14 receptor [3], the “agonist activity at the human P2Y14 receptor” value is given as “potent agonist of the human P2Y14 receptor”.
Turning to `O=c1ccn([C@@H]2O[C@H](COP(=O)([O-])OP(=O)([O-])O[C@H]3O[C@H](CO)[C@@H](O)[C@H](O)[C@H]3O)[C@@H](O)[C@H]2O)c(=S)[nH]1.[Na+].[Na+]` [MRS 2690], the “potency relative to UDP-Glc” value at P2Y14 receptor [4] is given as “approximately 7 fold”.
Turning to `O=c1ccn([C@@H]2O[C@H](COP(=O)(O)OP(=O)(O)OP(=O)(O)O)[C@@H](O)[C@H]2O)c(=O)[nH]1` [UTP, uridine-5′-triphosphate, reference compound], the “chemotactic migration of mouse LSK cells” value with LSK cells was “only a slight increase for mouse LSK cell migration with no statistical significance”.

B1: G-CSF: G-CSF (Neupogen, Amgen), most commonly used cytokine for mobilization of HSPCs (protein, chains of the INN, looked up)
chain: MTPLGPASSLPQSFLLKCLEQVRKIQGDGAALQEKLCATYKLCHPEELVLLGHSLGIPWAPLSSCPSQALQLAGCLSQLHSGLFLYQGLLQALEGISPELGPTLDTLQLDVADFATTIWQQMEELGMAPALQPTQGAMPAFASAFQRRAGGVLVASHLQSFLEVSYRVLRHLAQP
Take B1: the “level of CG” value in the data set with cathepsin G (CG) is listed as “Elevated levels”. Further, the “level of MMP-9” value in the data set on MMP-9 is “Elevated levels”. In the data set on neutrophil elastase (NE), the “level of NE” value is “Elevated levels”. Moreover, in data set [5] (one month following transplantation), the “competitive repopulation, UDP-Glc- vs G-CSF-mobilized cells, early” value was “considerable competitive advantage over UDP-Glc-mobilized cells”. The “competition in secondary recipients, bone marrow cells” value in data set [5] (serial transplantation, UDP-Glc (CD45.2) vs G-CSF (CD45.1)) is given as “completely out-competed by the cells derived from UDP-Glc mobilization”. Besides, in the data set with LSK and SLAM LSK cells (setting [6]), the “LSK cells in mobilized peripheral blood” value came to 0.058% and the “SLAM LSK cells in mobilized peripheral blood” value is listed as 0.0014%.
